Measurements from ChEMBL document CHEMBL5365407, “Design, synthesis and biological evaluation of nitric oxide-releasing 5-cyano-6-phenyl-2, 4-disubstituted pyrimidine derivatives” (Bioorg Med Chem Lett, 2023).
The source made the active and inactive calls. The calls are words filed in the database; no cut-off is given here.

Key:
ECa-109 cell line = test: Antiproliferative activity against human Eca-109 cells measured after 72 hrs by MTT assay; type: functional, cell-based; conditions: ECa-109, 72 h
PC-3 = test: Antiproliferative activity against human PC-3 cells measured after 72 hrs by MTT assay; type: functional, cell-based; conditions: PC-3, 72 h
MGC-803 = test: cells; conditions: Homo sapiens, MGC-803, 72 h
Description: Antiproliferative activity against human MGC-803 cells measured after 72 hrs by MTT assay

MCF7 = test: cells; conditions: Homo sapiens, MCF7, 72 h
Description: Antiproliferative activity against human MCF7 cells measured after 72 hrs by MTT assay

[1] = Induction of NO release in phosphate buffer containing excess L-cysteine measured up to 14 hrs by Griess assay; type: functional

Row | Structure (SMILES) | IC50 (ECa-109 cell line) [µM] | IC50 (PC-3) [µM] | IC50 (MGC-803) [µM] | IC50 (MCF7) [µM] | Activity [1]
1 | C=CC(=O)Nc1cccc(Nc2nc(SCC(=O)N3CCN(CCOc4no[n+]([O-])c4S(=O)(=O)c4ccccc4)CC3)nc(-c3ccccc3)c2C#N)c1 | 3.66 | 1.88 | 1.41 | 4.22 | 
2 | Cc1cccc(Nc2nc(SCC(=O)N3CCN(CCOc4no[n+]([O-])c4S(=O)(=O)c4ccccc4)CC3)nc(-c3ccccc3)c2C#N)c1 | 2.38 | 2.1 | 1.25 | 2.12 | 
3 | N#Cc1c(Nc2ccccc2)nc(SCC(=O)OCCCCOc2no[n+]([O-])c2S(=O)(=O)c2ccccc2)nc1-c1ccccc1 | > 50 | 2.45 | 7 | 5.08 | 
4 | N#Cc1c(Nc2ccccc2)nc(SCC(=O)OCCCOc2no[n+]([O-])c2S(=O)(=O)c2ccccc2)nc1-c1ccccc1 | 8.58 | 2.32 | 7.31 | 7.66 | 
5 | N#Cc1c(Nc2cccc(F)c2)nc(SCC(=O)N2CCN(CCOc3no[n+]([O-])c3S(=O)(=O)c3ccccc3)CC2)nc1-c1ccccc1 | 4.54 | 1.63 | 1.08 | 2.72 | 
6 | N#Cc1c(Nc2ccc(Cl)c(Cl)c2)nc(SCC(=O)N2CCN(CCOc3no[n+]([O-])c3S(=O)(=O)c3ccccc3)CC2)nc1-c1ccccc1 | 3.92 | 1.85 | 1.88 | 3.35 | 
7 | N#Cc1c(Nc2ccccc2F)nc(SCC(=O)N2CCN(CCOc3no[n+]([O-])c3S(=O)(=O)c3ccccc3)CC2)nc1-c1ccccc1 | 3.56 | 1.19 | 1.44 | 2.28 | 
8 | COc1ccccc1Nc1nc(SCC(=O)N2CCN(CCOc3no[n+]([O-])c3S(=O)(=O)c3ccccc3)CC2)nc(-c2ccccc2)c1C#N | 4.7 | 1.7 | 1.46 | 3.3 | 
9 | CCOc1ccccc1Nc1nc(SCC(=O)N2CCN(CCOc3no[n+]([O-])c3S(=O)(=O)c3ccccc3)CC2)nc(-c2ccccc2)c1C#N | 3.75 | 2.05 | 1.46 | 3.61 | 
10 | N#Cc1c(Nc2ccccc2C(F)(F)F)nc(SCC(=O)N2CCN(CCOc3no[n+]([O-])c3S(=O)(=O)c3ccccc3)CC2)nc1-c1ccccc1 | 3.85 | 3.02 | 1.67 | 2.26 | 
11 | CCCc1cccc(Nc2nc(SCC(=O)N3CCN(CCOc4no[n+]([O-])c4S(=O)(=O)c4ccccc4)CC3)nc(-c3ccccc3)c2C#N)c1 | 8.05 | 2.92 | 1.89 | 3.03 | 
12 | N#Cc1c(Nc2ccccc2)nc(SCC(=O)NCCCCCOc2no[n+]([O-])c2S(=O)(=O)c2ccccc2)nc1-c1ccccc1 | 4.61 | 2.3 | 2.21 | 4.02 | 
13 | N#Cc1c(Nc2ccccc2)nc(SCC(=O)N2CCC(Oc3no[n+]([O-])c3S(=O)(=O)c3ccccc3)CC2)nc1-c1ccccc1 | 7.03 | 2.01 | 2.57 | 6.02 | 
14 | N#Cc1c(Nc2ccccc2)nc(SCC(=O)NCCCOc2no[n+]([O-])c2S(=O)(=O)c2ccccc2)nc1-c1ccccc1 | 5.73 | 2.28 | 2.95 | 6.03 | 
15 | CN1CCN(c2nc(SCC(=O)N3CCN(CCOc4no[n+]([O-])c4S(=O)(=O)c4ccccc4)CC3)nc(-c3ccccc3)c2C#N)CC1 | 2.34 | 1.57 | 1.46 | 2.69 | 
16 | COc1cccc(Nc2nc(SCC(=O)N3CCN(CCOc4no[n+]([O-])c4S(=O)(=O)c4ccccc4)CC3)nc(-c3ccccc3)c2C#N)c1 | 4.6 | 3.38 | 1.54 | 2.09 | 
17 | N#Cc1c(Nc2ccccc2)nc(SCC(=O)OCC#CCOc2no[n+]([O-])c2S(=O)(=O)c2ccccc2)nc1-c1ccccc1 | 3.27 | 2.06 | 2.67 | 10.4 | 
18 | CCc1cccc(Nc2nc(SCC(=O)N3CCN(CCOc4no[n+]([O-])c4S(=O)(=O)c4ccccc4)CC3)nc(-c3ccccc3)c2C#N)c1 | 4.1 | 2.4 | 1.11 | 2.87 | 
19 | N#Cc1c(Nc2cccc(C(F)(F)F)c2)nc(SCC(=O)N2CCN(CCOc3no[n+]([O-])c3S(=O)(=O)c3ccccc3)CC2)nc1-c1ccccc1 | 2.89 | 2.19 | 1.26 | 2.21 | 
20 | N#Cc1c(-c2ccccc2)nc(SCC(=O)N2CCN(CCOc3no[n+]([O-])c3S(=O)(=O)c3ccccc3)CC2)nc1N1CCOCC1 | 6.92 | 6.98 | 8.13 | 8.95 | Active
21 | CCc1ccccc1Nc1nc(SCC(=O)N2CCN(CCOc3no[n+]([O-])c3S(=O)(=O)c3ccccc3)CC2)nc(-c2ccccc2)c1C#N | 4.42 | 2.93 | 2.01 | 2.6 | 
22 | N#Cc1c(Nc2ccccc2)nc(SCC(=O)OCCCCCCOc2no[n+]([O-])c2S(=O)(=O)c2ccccc2)nc1-c1ccccc1 | > 50 | 13 | > 50 | > 50 | 

Row | Structure (SMILES) | IC50 (ECa-109 cell line) [µM] | IC50 (PC-3) [µM] | IC50 (MGC-803) [µM] | IC50 (MCF7) [µM] | Activity [1]
23 | N#Cc1c(Nc2ccccc2)nc(SCC(=O)N2CCN(CCOc3no[n+]([O-])c3S(=O)(=O)c3ccccc3)CC2)nc1-c1ccccc1 | 2.27 | 1.92 | 2 | 2.96 | 
24 | N#Cc1c(Nc2ccc(F)c(Cl)c2)nc(SCC(=O)N2CCN(CCOc3no[n+]([O-])c3S(=O)(=O)c3ccccc3)CC2)nc1-c1ccccc1 | 2.81 | 1.97 | 1.07 | 3.36 | 
25 | N#Cc1c(Nc2ccc(F)cc2)nc(SCC(=O)N2CCN(CCOc3no[n+]([O-])c3S(=O)(=O)c3ccccc3)CC2)nc1-c1ccccc1 | 2.48 | 1.39 | 1.56 | 2.23 | 
26 | N#Cc1c(Nc2ccccc2)nc(SCC(=O)NCCOc2no[n+]([O-])c2S(=O)(=O)c2ccccc2)nc1-c1ccccc1 | 6.35 | 2.37 | 2.58 | 4.16 | 
27 | N#Cc1c(Nc2ccc(Br)cc2)nc(SCC(=O)N2CCN(CCOc3no[n+]([O-])c3S(=O)(=O)c3ccccc3)CC2)nc1-c1ccccc1 | 3.32 | 1.94 | 1.39 | 2.31 | 
28 | N#Cc1c(Nc2ccc(C(F)(F)F)cc2)nc(SCC(=O)N2CCN(CCOc3no[n+]([O-])c3S(=O)(=O)c3ccccc3)CC2)nc1-c1ccccc1 | 4.64 | 3.52 | 1.56 | 2.23 | 
29 | CCOc1ccc(Nc2nc(SCC(=O)N3CCN(CCOc4no[n+]([O-])c4S(=O)(=O)c4ccccc4)CC3)nc(-c3ccccc3)c2C#N)cc1 | 3.57 | 2.84 | 2.95 | 5.43 | 
30 | N#Cc1c(Nc2cccc(Cl)c2)nc(SCC(=O)N2CCN(CCOc3no[n+]([O-])c3S(=O)(=O)c3ccccc3)CC2)nc1-c1ccccc1 | 2.31 | 1.43 | 1.19 | 2.51 | 
31 | N#Cc1c(Nc2ccccc2)nc(SCC(=O)N2CCC(Oc3no[n+]([O-])c3S(=O)(=O)c3ccccc3)C2)nc1-c1ccccc1 (stereo unspecified) | 4.39 | 2.18 | 3.56 | 3.55 | 
32 | N#Cc1c(Nc2ccc(Cl)cc2)nc(SCC(=O)N2CCN(CCOc3no[n+]([O-])c3S(=O)(=O)c3ccccc3)CC2)nc1-c1ccccc1 | 3.01 | 2.08 | 2.05 | 3.04 | Active
33 | CCCc1ccc(Nc2nc(SCC(=O)N3CCN(CCOc4no[n+]([O-])c4S(=O)(=O)c4ccccc4)CC3)nc(-c3ccccc3)c2C#N)cc1 | 5.42 | 1.16 | 1.09 | 2.07 | 
34 | Cc1ccc(Nc2nc(SCC(=O)N3CCN(CCOc4no[n+]([O-])c4S(=O)(=O)c4ccccc4)CC3)nc(-c3ccccc3)c2C#N)cc1 | 2.94 | 2.37 | 1.36 | 2.14 | 
35 | CCCc1ccccc1Nc1nc(SCC(=O)N2CCN(CCOc3no[n+]([O-])c3S(=O)(=O)c3ccccc3)CC2)nc(-c2ccccc2)c1C#N | 4.61 | 2.15 | 2.04 | 2.74 | 
36 | O=S(=O)(c1ccccc1)c1c(OCCN2CCNCC2)no[n+]1[O-] |  |  | 6.74 |  | 
37 | N#Cc1c(Nc2cccc(Br)c2)nc(SCC(=O)N2CCN(CCOc3no[n+]([O-])c3S(=O)(=O)c3ccccc3)CC2)nc1-c1ccccc1 | 3.45 | 1.55 | 1.33 | 3.16 | 
38 | N#Cc1c(Nc2ccccc2)nc(SCC(=O)OCCCCCOc2no[n+]([O-])c2S(=O)(=O)c2ccccc2)nc1-c1ccccc1 | > 50 | 2.28 | 3.8 | 5.94 | 
39 | N#Cc1c(-c2ccccc2)nc(SCC(=O)N2CCN(CCOc3no[n+]([O-])c3S(=O)(=O)c3ccccc3)CC2)nc1N1CCSCC1 | 6.68 | 5.05 | 4.61 | 6.81 | 
40 | Cc1ccccc1Nc1nc(SCC(=O)N2CCN(CCOc3no[n+]([O-])c3S(=O)(=O)c3ccccc3)CC2)nc(-c2ccccc2)c1C#N | 2.48 | 2.25 | 1.59 | 2.33 | 
41 | N#Cc1c(Nc2ccccc2)nc(SCC(=O)OCCc2ccc(Oc3no[n+]([O-])c3S(=O)(=O)c3ccccc3)cc2)nc1-c1ccccc1 | 23.1 | 2.1 | 18.4 | > 50 | 
42 | CCc1ccc(Nc2nc(SCC(=O)N3CCN(CCOc4no[n+]([O-])c4S(=O)(=O)c4ccccc4)CC3)nc(-c3ccccc3)c2C#N)cc1 | 5.97 | 2.72 | 1.45 | 3.39 | 
43 | CCN1CCN(c2nc(SCC(=O)N3CCN(CCOc4no[n+]([O-])c4S(=O)(=O)c4ccccc4)CC3)nc(-c3ccccc3)c2C#N)CC1 | 2.27 | 1.42 | 1.24 | 2.24 | 
